US20170121315A1, “HETEROBICYCLICALLY SUBSTITUTED 4-OXOBUTANE ACID DERIVATIVES AND USE THEREOF” (priority 2014, published 2017)

Biological target: T1, human macrophage elastase (HME/hMMP-12) (Homo sapiens, UniProt P39900)
T1 construct: purchased R&D Systems 917-MP
Experiment: In vitro HME inhibition test (standard or high-sensitivity)
Assay type: biochemical
Conditions: in some cases mean values, rounded to two significant figures
Experimental: The potency of the compounds according to the invention with respect to HME (MMP-12) is determined in an in vitro inhibition test. The HME-mediated amidolytic cleavage of a suitable peptide substrate leads to an increase in fluorescent light therein. The signal intensity of the fluorescent light is directly proportional to the enzyme activity. The active concentration of a test compound at which half the enzyme is inhibited (50% signal intensity of the fluorescent light) is reported as the IC50 value.
In a 384 hole microtiter plate, in a total test volume of 41 μl, the test buffer (0.1 M HEPES pH 7.4, 0.15 M NaCl, 0.03 M CaCl2, 0.004 mM ZnCl2, 0.02 M EDTA, 0.005% Brij®), the enzyme (0.5 nM HME; R&D Systems, 917-MP, autocatalytic activation according to the manufacturer's instructions) and the intramolecularly quenched substrate [5 μM Mca-Pro-Leu-Gly-Leu-Glu-Glu-Ala-Dap(Dnp)-NH2; Bachem, M-2670] are incubated in the absence and presence of the test substance (as a solution in DMSO) at 37° C. for two hours. The fluorescence intensity of the test mixtures is measured (excitation […], emission 393 nm). The IC50 values are ascertained by plotting the fluorescent light intensity against the active ingredient concentration.
In this case, an enzyme concentration ten times lower is used (final concentration, e.g. 0.05 nM) in order to achieve an increased test sensitivity. The incubation period chosen for the test is correspondingly longer (e.g. 16 hours).

T1 sequence (P39900 106-470): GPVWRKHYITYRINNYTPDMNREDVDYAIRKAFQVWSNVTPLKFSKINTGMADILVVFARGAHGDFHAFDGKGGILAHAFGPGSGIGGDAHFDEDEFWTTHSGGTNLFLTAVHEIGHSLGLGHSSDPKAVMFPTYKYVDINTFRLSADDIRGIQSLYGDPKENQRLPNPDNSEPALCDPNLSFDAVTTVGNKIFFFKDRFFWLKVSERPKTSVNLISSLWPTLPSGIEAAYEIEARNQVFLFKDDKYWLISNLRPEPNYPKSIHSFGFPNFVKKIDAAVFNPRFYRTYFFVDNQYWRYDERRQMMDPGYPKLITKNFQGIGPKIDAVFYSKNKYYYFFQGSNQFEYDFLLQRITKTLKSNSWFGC

IC50 [nM] | Compound
4.1 | COc1ccc(CCOc2ccc3oc(C(=O)CC(CCn4nnc5ccccc5c4=O)C(=O)O)cc3c2)cc1 (racemic) [Example 3, (+/−)-4-{5-[2-(4-Methoxyphenyl)ethoxy]-1-benzofur-2-yl}-4-oxo-2-[2-(4-oxo-1,2,3-benzotriazin-3(4H)-yl)ethyl]butanoic acid]
4.3 | Cc1ccccc1CCOc1ccc2oc(C(=O)CC(CCn3nnc4ccccc4c3=O)C(=O)O)cc2c1 (racemic) [Example 4, (+/−)-4-{5-[2-(2-Methylphenyl)ethoxy]-1-benzofur-2-yl}-4-oxo-2-[2-(4-oxo-1,2,3-benzotriazin-3(4H)-yl)ethyl]butanoic acid]
0.65 | O=C(CC(CCn1nnc2ccccc2c1=O)C(=O)O)c1cc2cc(OCC3(F)CCOCC3)ccc2o1 (racemic) [Example 14, (+/−)-4-{5-[(4-Fluorotetrahydro-2H-pyran-4-yl)methoxy]-1-benzofur-2-yl}-4-oxo-2-[2-(4-oxo-1,2,3-benzotriazin-3(4H)-yl)ethyl]butanoic acid]
4.8 | N#CCCCOc1ccc2oc(C(=O)CC(CCn3nnc4ccccc4c3=O)C(=O)O)cc2c1 (racemic) [Example 15, (+/−)-4-[5-(3-Cyanopropoxy)-1-benzofur-2-yl]-4-oxo-2-[2-(4-oxo-1,2,3-benzotriazin-3(4H)-yl)ethyl]butanoic acid]
24 | O=C(CC(CCn1nnc2ccccc2c1=O)C(=O)O)c1cc2cc(OCC3CCCC3)ccc2o1 (racemic) [Example 16, (+/−)-4-[5-(Cyclopentylmethoxy)-1-benzofur-2-yl]-4-oxo-2-[2-(4-oxo-1,2,3-benzotriazin-3(4H)-yl)ethyl]butanoic acid]
4.7 | O=C(CC(CCn1nnc2ccccc2c1=O)C(=O)O)c1cc2cc(OCCc3ccccc3)ccc2o1 (racemic) [Example 19, (+/−)-4-Oxo-2-[2-(4-oxo-1,2,3-benzotriazin-3(4H)-yl)ethyl]-4-[5-(2-phenylethoxy)-1-benzofur-2-yl]butanoic acid]
2.5 | O=C(CC(CCn1nnc2ccccc2c1=O)C(=O)O)c1cc2cc(OCc3ccc(F)cc3)ccc2o1 (racemic) [Example 22, (+/−)-4-{5-[(4-Fluorobenzyl)oxy]-1-benzofur-2-yl}-4-oxo-2-[2-(4-oxo-1,2,3-benzotriazin-3(4H)-yl)ethyl]butanoic acid]
0.2 | O=C(CC(CCn1nnc2ccccc2c1=O)C(=O)O)c1cc2cc(OCc3ccc(Cl)c(Cl)c3)ccc2o1 (racemic) [Example 25, (+/−)-4-{5-[(3,4-Dichlorobenzyl)oxy]-1-benzofur-2-yl}-4-oxo-2-[2-(4-oxo-1,2,3-benzotriazin-3(4H)-yl)ethyl]butanoic acid]
3.1 | O=C(CC(CCn1nnc2ccccc2c1=O)C(=O)O)c1cc2cc(OCc3ccccc3)ccc2o1 (racemic) [Example 28, (+/−)-4-[5-(Benzyloxy)-1-benzofur-2-yl]-4-oxo-2-[2-(4-oxo-1,2,3-benzotriazin-3(4H)-yl)ethyl]butanoic acid]
2 | NC(=O)c1ccc(COc2ccc3oc(C(=O)CC(CCn4nnc5ccccc5c4=O)C(=O)O)cc3c2)cc1 (racemic) [Example 35, (+/−)-4-{5-[(4-Carbamoylbenzyl)oxy]-1-benzofur-2-yl}-4-oxo-2-[2-(4-oxo-1,2,3-benzotriazin-3(4H)-yl)ethyl]butanoic acid]
0.33 | O=C(CC(CCn1nnc2ccccc2c1=O)C(=O)O)c1cc2cc(OCc3ccc4nonc4c3)ccc2o1 (racemic) [Example 36, (+/−)-4-[5-(2,1,3-Benzoxadiazol-5-ylmethoxy)-1-benzofur-2-yl]-4-oxo-2-[2-(4-oxo-1,2,3-benzotriazin-3(4H)-yl)ethyl]butanoic acid]
4.6 | CC(C)CCCOc1ccc2oc(C(=O)CC(CCn3nnc4ccccc4c3=O)C(=O)O)cc2c1 (racemic) [Example 40, (+/−)-4-{5-[(4-Methylpentyl)oxy]-1-benzofur-2-yl}-4-oxo-2-[2-(4-oxo-1,2,3-benzotriazin-3(4H)-yl)ethyl]butanoic acid]
3.9 | CC(C)CCCCOc1ccc2oc(C(=O)CC(CCn3nnc4ccccc4c3=O)C(=O)O)cc2c1 (racemic) [Example 41, (+/−)-4-{5-[(5-Methylhexyl)oxy]-1-benzofur-2-yl}-4-oxo-2-[2-(4-oxo-1,2,3-benzotriazin-3(4H)-yl)ethyl]butanoic acid]
3.2 | O=C(CC(CCn1nnc2ccccc2c1=O)C(=O)O)c1cc2cc(OCCCc3ccc(C(F)(F)F)cc3)ccc2o1 (racemic) [Example 42, (+/−)-4-Oxo-2-[2-(4-oxo-1,2,3-benzotriazin-3(4H)-yl)ethyl]-4-(5-{3-[4-(trifluoromethyl)phenyl]propoxy}-1-benzofur-2-yl)butanoic acid]
1.3 | O=C(CC(CCn1nnc2ccccc2c1=O)C(=O)O)c1cc2cc(OCc3cccc(F)c3)ccc2o1 (racemic) [Example 43, (+/−)-4-{5-[(3-Fluorobenzyl)oxy]-1-benzofur-2-yl}-4-oxo-2-[2-(4-oxo-1,2,3-benzotriazin-3(4H)-yl)ethyl]butanoic acid]
2.3 | O=C(CC(CCn1nnc2ccccc2c1=O)C(=O)O)c1cc2cc(OCc3ccccc3F)ccc2o1 (racemic) [Example 45, (+/−)-4-{5-[(2-Fluorobenzyl)oxy]-1-benzofur-2-yl}-4-oxo-2-[2-(4-oxo-1,2,3-benzotriazin-3(4H)-yl)ethyl]butanoic acid]
1.9 | O=C(CC(CCn1nnc2ccccc2c1=O)C(=O)O)c1cc2cc(OCCCc3cccs3)ccc2o1 (racemic) [Example 46, (+/−)-4-Oxo-2-[2-(4-oxo-1,2,3-benzotriazin-3(4H)-yl)ethyl]-4-{5-[3-(2-thienyl)propoxy]-1-benzofur-2-yl}butanoic acid]
0.94 | O=C(CC(CCn1nnc2ccccc2c1=O)C(=O)O)c1cc2cc(OCc3ccncc3)ccc2o1 (racemic) [Example 47, (+/−)-4-Oxo-2-[2-(4-oxo-1,2,3-benzotriazin-3(4H)-yl)ethyl]-4-[5-(pyridin-4-ylmethoxy)-1-benzofur-2-yl]butanoic acid]
4 | Cc1c(COc2ccc3oc(C(=O)CC(CCn4nnc5ccccc5c4=O)C(=O)O)cc3c2)cccc1C(F)(F)F (racemic) [Example 48, (+/−)-4-(5-{[2-Methyl-3-(trifluoromethyl)benzyl]oxy}-1-benzofur-2-yl)-4-oxo-2-[2-(4-oxo-1,2,3-benzotriazin-3(4H)-yl)ethyl]butanoic acid]
0.55 | O=C(CC(CCn1nnc2ccccc2c1=O)C(=O)O)c1cc2cc(OCc3cc(F)ccc3F)ccc2o1 (racemic) [Example 49, (+/−)-4-{5-[(2,5-Difluorobenzyl)oxy]-1-benzofur-2-yl}-4-oxo-2-[2-(4-oxo-1,2,3-benzotriazin-3(4H)-yl)ethyl]butanoic acid]
2.1 | O=C(CC(CCn1nnc2ccccc2c1=O)C(=O)O)c1cc2cc(OCc3ccc(F)cc3F)ccc2o1 (racemic) [Example 52, (+/−)-4-{5-[(2,4-Difluorobenzyl)oxy]-1-benzofur-2-yl}-4-oxo-2-[2-(4-oxo-1,2,3-benzotriazin-3(4H)-yl)ethyl]butanoic acid]
5.6 | O=C(CC(CCn1nnc2ccccc2c1=O)C(=O)O)c1cc2ccc(OCCC3CCOCC3)cc2o1 (racemic) [Example 54, (+/−)-4-Oxo-2-[2-(4-oxo-1,2,3-benzotriazin-3(4H)-yl)ethyl]-4-{6-[2-(tetrahydro-2H-pyran-4-yl)ethoxy]-1-benzofur-2-yl}butanoic acid]
3.7 | CCCCCOc1ccc2cc(C(=O)CC(CCn3nnc4ccccc4c3=O)C(=O)O)oc2c1 (racemic) [Example 55, (+/−)-4-Oxo-2-[2-(4-oxo-1,2,3-benzotriazin-3(4H)-yl)ethyl]-4-[6-(pentyloxy)-1-benzofur-2-yl]butanoic acid]
2.9 | CCCCCCOc1ccc2cc(C(=O)CC(CCn3nnc4ccccc4c3=O)C(=O)O)oc2c1 (racemic) [Example 64, (+/−)-4-[6-(Hexyloxy)-1-benzofur-2-yl]-4-oxo-2-[2-(4-oxo-1,2,3-benzotriazin-3(4H)-yl)ethyl]butanoic acid]
3.8 | CCCCCCCOc1ccc2cc(C(=O)CC(CCn3nnc4ccccc4c3=O)C(=O)O)oc2c1 (racemic) [Example 67, (+/−)-4-[6-(Heptyloxy)-1-benzofur-2-yl]-4-oxo-2-[2-(4-oxo-1,2,3-benzotriazin-3(4H)-yl)ethyl]butanoic acid]

Compound | IC50 [nM]
O=C(CC(CCn1nnc2ccccc2c1=O)C(=O)O)c1cc2cc(OCCCC(F)(F)F)ccc2o1 (racemic) [Example 11, (+/−)-4-Oxo-2-[2-(4-oxo-1,2,3-benzotriazin-3(4H)-yl)ethyl]-4-[5-(4,4,4-trifluorobutoxy)-1-benzofur-2-yl]butanoic acid] | 4.3
N#CCCCCOc1ccc2oc(C(=O)CC(CCn3nnc4ccccc4c3=O)C(=O)O)cc2c1 (racemic) [Example 53, (+/−)-4-[5-(4-Cyanobutoxy)-1-benzofur-2-yl]-4-oxo-2-[2-(4-oxo-1,2,3-benzotriazin-3(4H)-yl)ethyl]butanoic acid] | 2.9
CCCCOc1ccc2cc(C(=O)CC(CCn3nnc4ccccc4c3=O)C(=O)O)oc2c1 (racemic) [Example 61, (+/−)-4-(6-Butoxy-1-benzofur-2-yl)-4-oxo-2-[2-(4-oxo-1,2,3-benzotriazin-3(4H)-yl)ethyl]butanoic acid] | 4.6
